Like-named read-outs stand apart in the source and are kept apart here.

The source of these data is patent US8592603B2, “Synthesis of 2-(4-aminophenyl) benzothiazole derivatives and use thereof” (Kaohsiung Medical University, priority 2011, dated 2013).

Common to all, as to assay type: cell-based, human
In data set [1] the test system is BCC cells. Kind of data set: Assessment of mitochondrial membrane potential (DiOC6). The settings on record: dosages equal to or greater than 2 μM, 1 J/cm^2 UVA (FIG. 5B). The procedure: (§1) (A) 6f-UVA induced ROS generation in BCC cells. Histogram of fluorescence vs cell count in BCC cells with various concentrations of 6f-UVA and stained with DCFH-DA. As a control, ROS was measured in the presence of catalase, a H2O2 scavenger. (B) The ΔΨmt of BCC cells after exposure to 6f-UVA. Cells were treated with 0, 2, and 4 μM Formula 6f for 4 h followed by 1 J/cm2 UVA irradiation, then stained with DiOC6 and analyzed immediately by flow cytometry as described under Materials and Methods. The number in M1 indicates the percentage of cells with reduced ΔΨmt. Approximately 10000 cells from each group were analyzed by flow cytometry. (C) Relative ATP levels were calculated as the percentage of the 0 μM level. Similar results were obtained in three independent experiments. *p<0.05, ** p<0.01 as compared with the control.
BCC cells were cultured in 35-mm dishes and allowed to reach exponential growth for 24 h before treatment. Cells were pretreated with […] Formula 6f for 4 h before 1 J/cm^2 UVA irradiation. The medium was removed and the adherent cells trypsinized. […] The samples were analyzed immediately for fluorescence (FL-1 detector, filter 530/30 nm band pass) on a FACScan flow cytometer (Elite ESP, Beckman Coulter, Brea, Calif.). Histograms were analyzed using Windows Multiple Document interface software (WinMDI).

For data set [2], the system named is BCC cells. The data set can be described thus: ATP content bioluminescence assay. The procedure:
as §1
The amount of intracellular ATP was determined by bioluminescent assay based on the measurement of the light output of the luciferin-luciferase reaction. After treatment with various concentrations of 6f-UVA, total cell extracts from cultured BCC cells were obtained immediately by lysing solution. After centrifugation to remove cell debris, the supernatants were collected for ATP measurement. The total amount of intracellular ATP was determined according to the protocol provided with the ATPLite assay kit (Perkin Elmer, Boston, Mass.).

Data set [3] deals with BCC cells. The data set can be described thus: Cell viability by MTT assay after compound and UVA irradiation. The settings on record: for viability at 4 µM: Homo sapiens, BCC, light or radiation study, read-out: cell viability compared with untreated controls. As to the method:
(A) Dose-response curves for compound 6 ftested against BCC cells. Cells were seeded in a 96-well plate at 2500 cells per well and cultivated overnight until cell attachment. 6f-UVA at the indicated concentration was added into the culture media in triplicate and incubated for 4 h before 1 J/cm2 UVA irradiation. Twenty-four hours after irradiation, the MTT reagent was added into each well. The absorbance is directly proportional to the number of living cells. (B) To clarify whether 6-UVA has more cytotoxicity than either UVA irradiation alone or treatment with 6 alone, cells were cultured with or without 4 μM Formula 6f before different dosage of UVA irradiation. *p<0.05, **p<0.01 as compared with the control.
The method for UVA irradiation was described in the previous study (Kao, C. S.; Yu, H. S. J. Invest. Dermatol. 1992, 98, 734). For UVA irradiation, a specific UVA lamp emitting a peak wavelength of 365 nm with intensity of 0.75 mW/cm^2 (Vilber Lourmat, Moune La Vallee, Cedex, France) was used. The cultured cells were pretreated with different agents at 4 μM or pretreated with various concentrations (0-4 μM) of Formula 6 for 4 h before UVA irradiation. The cultured cells were rinsed with phosphate-buffered saline (PBS) and then irradiated with 1 J/cm^2 UVA in PBS to avoid the formation of medium-derived toxic photoproducts induced by UV exposure. The doses of irradiation were measured using a UVX radiometer (UVP, San Gabriel, Calif., USA). Immediately after phototreatment, PBS was removed and media were added to the cells. All the following experiments were performed three times in triplicate.
Cell viability was assessed by the MTT assay, a mitochondrial function assay based on the ability of viable cells to reduce the redox indicator MTT to insoluble formazan crystals by mitochondrial dehydrogenase. Briefly, cells were seeded in a 96-well plate at the cell density of 2500 cells/well. After an overnight incubation, the cells were treated with compounds at 4 μM and incubated for 24 h. The medium was then discarded and replaced with 10 μL of MTT dye. Plates were incubated at 37° C. for 2 h. The resulting formazan crystals were solubilized in 100 μL DMSO, and the optical density was read at 540 nm with a microplate reader (MRX-II, Dynex technology, Chantilly, Va.).
(In general: Tetrazolium dyes change colour on reduction, which living cells bring about.)

In data set [4] the test system is BCC cells. The data set can be described thus: Determination of intracellular ROS level (DCFH-DA). Conditions: BCC cells, 6f-UVA, DCFH-DA probe (FIG. 5A). The procedure: as §1
To evaluate intracellular reactive oxygen species (ROS) levels, 2′,7′-dichlorofluorescein diacetate (DCFH-DA, Molecular Probes) fluorescent dye was used to clarify this issue. The nonpolar DCFH-DA is converted to the polar derivative DCFH by esterases when it is taken up by the cell. DCFH is nonfluorescent but is rapidly oxidized to the highly fluorescent DCF by intracellular H2O2 or nitric oxide. […] The fluorescence of the samples was measured with a flow cytometer. The 2′,7′-dichlorofluorescein (DCF) data were recorded using FL-1 photomultiplier.

In general, viability refers to a read-out of living cells in per cent, often relative to untreated cells. Consider `Nc1ccc(-c2nc3ccc(C(F)(F)F)cc3s2)cc1` [Formula 6f, 2-(4-Aminophenyl)-6-trifluoromethylbenzothiazole], for which, in the data set with BCC cells [1], the “mitochondrial membrane potential (ΔΨmt)” value is “significant decline”. Also, the “decrease of intracellular ATP content compared with untreated control” value is “about 30%” in the data set with BCC cells [2] (2 μM 6f-UVA) and around 45% in the data set with BCC cells [2] (4 μM 6f-UVA). Further, in the data set on BCC cells [3] (BCC cells, 4 μM for 4 h, 1 J/cm^2 UVA, 24 h after exposure (FIG. 3A)), the cell survival result is “below 50%”. The “inhibitory effect on cell viability” value in the data set on BCC cells [3] (BCC cells, different concentrations for 4 h, 1 J/cm^2 UVA (FIG. 3A)) was “dependent on drug concentration”. Besides, the viability at 4 µM in the data set with BCC cells [3] (BCC cells, 0.25 J/cm^2 UVA) stood at 71%; with BCC cells [3] (BCC cells, 0.5 J/cm^2 UVA), 65%; with BCC cells [3] (BCC cells, 1 J/cm^2 UVA) it was 45%. The “cytotoxicity against BCC cells” value with BCC cells [3] (compound alone, without UVA irradiation (FIG. 3B)) is on record as “does not have cytotoxicity”. In the data set on BCC cells [4], the “intracellular H2O2 levels” value is “significantly increased”.
